Numbers after ± are expanded uncertainties.
Assays:
[1] = 298.15 K, 101.33 kPa, Liquid; for viscosity: Capillary tube (Ostwald / Ubbelohde) method; for speed of sound: Sing-around technique in a fixed-path interferometer; for mass density: Vibrating tube method
[2] = xn = mol fraction of the nth substance listed; conditions: 298.15 K, 101 kPa, Liquid; for viscosity: Capillary tube (Ostwald / Ubbelohde) method; for speed of sound: Sing-around technique in a fixed-path interferometer; for mass density: Vibrating tube method

CCCCCCCO [heptan-1-ol]
viscosity [1]: 6.041 ± 0.044 mPa·s
speed of sound [1]: 1329 ± 2 m/s
mass density [1]: 818.77 ± 0.24 kg/m3

CCCCCCCO [heptan-1-ol] + CC1CCCCC1
viscosity ([2]; x1 = 0.1009): 0.797 ± 0.006 mPa·s
viscosity ([2]; x1 = 0.2007): 0.956 ± 0.008 mPa·s
viscosity ([2]; x1 = 0.3011): 1.174 ± 0.009 mPa·s
viscosity ([2]; x1 = 0.4011): 1.461 ± 0.011 mPa·s
viscosity ([2]; x1 = 0.4501): 1.64 ± 0.013 mPa·s
viscosity ([2]; x1 = 0.4985): 1.839 ± 0.014 mPa·s
viscosity ([2]; x1 = 0.6033): 2.384 ± 0.018 mPa·s
viscosity ([2]; x1 = 0.7417): 3.369 ± 0.025 mPa·s
viscosity ([2]; x1 = 0.7985): 3.875 ± 0.029 mPa·s
viscosity ([2]; x1 = 0.9006): 4.922 ± 0.036 mPa·s
speed of sound ([2]; x1 = 0.1031): 1217 ± 2 m/s
speed of sound ([2]; x1 = 0.2024): 1225 ± 2 m/s
speed of sound ([2]; x1 = 0.3006): 1236 ± 2 m/s
speed of sound ([2]; x1 = 0.4033): 1247 ± 2 m/s
speed of sound ([2]; x1 = 0.4973): 1259 ± 2 m/s
speed of sound ([2]; x1 = 0.5394): 1264 ± 2 m/s
speed of sound ([2]; x1 = 0.6026): 1273 ± 2 m/s
speed of sound ([2]; x1 = 0.7045): 1287 ± 2 m/s
speed of sound ([2]; x1 = 0.7972): 1300 ± 2 m/s
speed of sound ([2]; x1 = 0.8951): 1315 ± 2 m/s
speed of sound ([2]; x1 = 1): 1329 ± 2 m/s
mass density ([2]; x1 = 0.1): 770.2 ± 0.24 kg/m3
mass density ([2]; x1 = 0.1506): 773.03 ± 0.24 kg/m3
mass density ([2]; x1 = 0.2001): 775.76 ± 0.24 kg/m3
mass density ([2]; x1 = 0.3011): 781.37 ± 0.24 kg/m3
mass density ([2]; x1 = 0.4): 786.91 ± 0.24 kg/m3
mass density ([2]; x1 = 0.449): 789.61 ± 0.24 kg/m3
mass density ([2]; x1 = 0.5002): 792.45 ± 0.24 kg/m3
mass density ([2]; x1 = 0.5497): 795.18 ± 0.24 kg/m3
mass density ([2]; x1 = 0.5999): 797.98 ± 0.24 kg/m3
mass density ([2]; x1 = 0.6503): 800.71 ± 0.24 kg/m3
mass density ([2]; x1 = 0.7007): 803.42 ± 0.24 kg/m3
mass density ([2]; x1 = 0.8): 808.68 ± 0.24 kg/m3
mass density ([2]; x1 = 0.8495): 811.24 ± 0.24 kg/m3
mass density ([2]; x1 = 0.8998): 813.8 ± 0.24 kg/m3

CCCCCCCO [heptan-1-ol] + ClC(Cl)=C(Cl)Cl
speed of sound ([2]; x1 = 1): 1329 ± 2 m/s

CC1CCCCC1 [methylcyclohexane]
viscosity [1]: 0.684 ± 0.007 mPa·s
speed of sound [1]: 1209 ± 2 m/s
mass density [1]: 764.99 ± 0.24 kg/m3

CC1CCCCC1 [methylcyclohexane] + CCCCCCCO
speed of sound ([2]; x2 = 0): 1215 ± 2 m/s

CC1CCCCC1 [methylcyclohexane] + ClC(Cl)=C(Cl)Cl
speed of sound ([2]; x2 = 0): 1215 ± 2 m/s

ClC(Cl)=C(Cl)Cl [tetrachloroethene]
viscosity [1]: 0.847 ± 0.008 mPa·s
speed of sound [1]: 1039 ± 2 m/s
mass density [1]: 1614.49 ± 0.79 kg/m3

ClC(Cl)=C(Cl)Cl [tetrachloroethene] + CC1CCCCC1
viscosity ([2]; x1 = 0.0999): 0.69 ± 0.006 mPa·s
viscosity ([2]; x1 = 0.2068): 0.698 ± 0.006 mPa·s
viscosity ([2]; x1 = 0.2505): 0.701 ± 0.006 mPa·s
viscosity ([2]; x1 = 0.2982): 0.705 ± 0.006 mPa·s
viscosity ([2]; x1 = 0.3944): 0.716 ± 0.006 mPa·s
viscosity ([2]; x1 = 0.4996): 0.728 ± 0.006 mPa·s
viscosity ([2]; x1 = 0.6016): 0.746 ± 0.006 mPa·s
viscosity ([2]; x1 = 0.7007): 0.765 ± 0.006 mPa·s
viscosity ([2]; x1 = 0.8008): 0.789 ± 0.006 mPa·s
viscosity ([2]; x1 = 0.8996): 0.816 ± 0.007 mPa·s
speed of sound ([2]; x1 = 0.2439): 1184 ± 2 m/s
speed of sound ([2]; x1 = 0.4173): 1156 ± 2 m/s
speed of sound ([2]; x1 = 0.4897): 1146 ± 2 m/s
speed of sound ([2]; x1 = 0.5494): 1136 ± 2 m/s
speed of sound ([2]; x1 = 0.6549): 1116 ± 2 m/s
speed of sound ([2]; x1 = 0.7372): 1098 ± 2 m/s
speed of sound ([2]; x1 = 0.7786): 1089 ± 2 m/s
speed of sound ([2]; x1 = 0.8104): 1082 ± 2 m/s
speed of sound ([2]; x1 = 0.8418): 1075 ± 2 m/s
speed of sound ([2]; x1 = 0.8693): 1069 ± 2 m/s
speed of sound ([2]; x1 = 0.9188): 1057 ± 2 m/s
speed of sound ([2]; x1 = 1): 1039 ± 2 m/s
mass density ([2]; x1 = 0.1007): 834.38 ± 0.25 kg/m3
mass density ([2]; x1 = 0.1924): 900.06 ± 0.27 kg/m3
mass density ([2]; x1 = 0.2): 905.67 ± 0.27 kg/m3
mass density ([2]; x1 = 0.2504): 942.96 ± 0.3 kg/m3
mass density ([2]; x1 = 0.3011): 981.34 ± 0.33 kg/m3
mass density ([2]; x1 = 0.3029): 982.75 ± 0.33 kg/m3
mass density ([2]; x1 = 0.4001): 1058.76 ± 0.42 kg/m3
mass density ([2]; x1 = 0.5009): 1141.4 ± 0.54 kg/m3
mass density ([2]; x1 = 0.5503): 1183.38 ± 0.54 kg/m3
mass density ([2]; x1 = 0.5984): 1225.08 ± 0.55 kg/m3
mass density ([2]; x1 = 0.6496): 1270.62 ± 0.56 kg/m3
mass density ([2]; x1 = 0.7014): 1317.87 ± 0.57 kg/m3
mass density ([2]; x1 = 0.7995): 1410.5 ± 0.62 kg/m3
mass density ([2]; x1 = 0.8489): 1458.9 ± 0.65 kg/m3
mass density ([2]; x1 = 0.8986): 1508.67 ± 0.69 kg/m3

ClC(Cl)=C(Cl)Cl [tetrachloroethene] + CCCCCCCO
viscosity ([2]; x2 = 0.102): 0.995 ± 0.008 mPa·s
viscosity ([2]; x2 = 0.2118): 1.222 ± 0.01 mPa·s
viscosity ([2]; x2 = 0.2498): 1.32 ± 0.01 mPa·s
viscosity ([2]; x2 = 0.3015): 1.457 ± 0.011 mPa·s
viscosity ([2]; x2 = 0.3997): 1.795 ± 0.014 mPa·s
viscosity ([2]; x2 = 0.4998): 2.24 ± 0.017 mPa·s
viscosity ([2]; x2 = 0.5478): 2.485 ± 0.019 mPa·s
viscosity ([2]; x2 = 0.587): 2.703 ± 0.021 mPa·s
viscosity ([2]; x2 = 0.6995): 3.451 ± 0.026 mPa·s
viscosity ([2]; x2 = 0.74): 3.742 ± 0.028 mPa·s
viscosity ([2]; x2 = 0.7954): 4.184 ± 0.031 mPa·s
viscosity ([2]; x2 = 0.8985): 5.06 ± 0.037 mPa·s
speed of sound ([2]; x2 = 0): 1039 ± 2 m/s
speed of sound ([2]; x2 = 0.0967): 1050 ± 2 m/s
speed of sound ([2]; x2 = 0.1957): 1069 ± 2 m/s
speed of sound ([2]; x2 = 0.2492): 1082 ± 2 m/s
speed of sound ([2]; x2 = 0.2952): 1093 ± 2 m/s
speed of sound ([2]; x2 = 0.3905): 1120 ± 2 m/s
speed of sound ([2]; x2 = 0.4667): 1142 ± 2 m/s
speed of sound ([2]; x2 = 0.5531): 1169 ± 2 m/s
speed of sound ([2]; x2 = 0.5894): 1178 ± 2 m/s
speed of sound ([2]; x2 = 0.6507): 1200 ± 2 m/s
speed of sound ([2]; x2 = 0.7002): 1217 ± 2 m/s
speed of sound ([2]; x2 = 0.7989): 1252 ± 2 m/s
speed of sound ([2]; x2 = 0.8969): 1290 ± 2 m/s
mass density ([2]; x2 = 0.093): 1514.31 ± 0.69 kg/m3
mass density ([2]; x2 = 0.1994): 1409 ± 0.62 kg/m3
mass density ([2]; x2 = 0.2502): 1361.6 ± 0.59 kg/m3
mass density ([2]; x2 = 0.2986): 1318.1 ± 0.56 kg/m3
mass density ([2]; x2 = 0.3979): 1233.3 ± 0.54 kg/m3
mass density ([2]; x2 = 0.4452): 1194.85 ± 0.53 kg/m3
mass density ([2]; x2 = 0.4983): 1153.02 ± 0.52 kg/m3
mass density ([2]; x2 = 0.5495): 1114.05 ± 0.47 kg/m3
mass density ([2]; x2 = 0.5995): 1077.22 ± 0.41 kg/m3
mass density ([2]; x2 = 0.6488): 1042 ± 0.36 kg/m3
mass density ([2]; x2 = 0.6969): 1008.69 ± 0.31 kg/m3
mass density ([2]; x2 = 0.7932): 944.69 ± 0.27 kg/m3
mass density ([2]; x2 = 0.8497): 908.83 ± 0.25 kg/m3
mass density ([2]; x2 = 0.8986): 878.72 ± 0.24 kg/m3

From the NIST ThermoML archive (doi:10.1016/j.jct.2006.07.015)
